Results taken from patent publication US20230141718A1, “METHODS OF TREATING GLIOBLASTOMA” (CELGENE QUANTICEL RESEARCH, INC., priority 2021, published 2023).
Where “and” joins values, the source holds several entries; their conditions need not be identical. Equal values may be shown once. Read-outs that look alike come from different tables or passages of the source.

Assay: Plasma pharmacokinetics of Compound A, CC-90010-GBM-002
Type: in vivo, human
Set-up: AUC / AUC(0-inf): concentration or dose not given beside the values
Details: for Cmax / AUC / AUC(0-inf): geometric mean; for tmax: median; for AUC: read-out: AUC24
Source text: The primary objectives of the study in this example were to establish the safety, maximum tolerated dose (MTD), and recommended phase 2 dose (RP2D) of Compound A. The preliminary efficacy, pharmacokinetics, and pharmacodynamics were also investigated.
The study described in this example (CC-90010-GBM-002/NCT04324840) is a phase 1B dose-finding study investigating standard of care of Compound A in combination with TMZ with or without radiotherapy (RT) in subjects with newly diagnosed GBM. Part A of the study is escalating the oral doses of Compound A in combination with adjuvant TMZ to estimate the MTD and/or the RP2D of Compound A as adjuvant therapy and escalating the oral doses of Compound A in combination with concomitant TMZ+radiotherapy (RT) to estimate the MTD and/or the RP2D of Compound A as concomitant therapy. Part B of the study is the safety and efficacy of Compound A administered at or below the MTD determined for the adjuvant therapy (AT) and concomitant therapy (CT).
For adjuvant therapy, Compound A and TMZ was administered for 6 cycles, then Compound A as a monotherapy was administered in 28-day cycles until disease progression, start of a new anticancer therapy, or withdrawal of consent or physician's decision. For adjuvant therapy, Compound A was administered at 15, 30, and 45 mg 4 days on/24 days off and TMZ was administered at 150 or 200 mg/m^2 QD Days 1-5, followed by Compound A at 45 mg 4 days on/24 days off. For adjuvant therapy, part B, Compound A was administered at RP2D and TMZ was administered at 150 or 200 mg/m^2, followed by Compound A at 45 mg 4 days on/24 days off.
For concomitant therapy, Compound A, TMZ, and RT were administered for 6 weeks, then 4-week break, followed by adjuvant Compound A and TMZ for 6 cycles then Compound A monotherapy in 28-day cycles until disease progression, start of a new anticancer therapy, withdrawal of consent or physician's decision. For concomitant therapy, part A, Compound A was administered at 15 mg or 30 mg QD Days 1-4 (weeks 1,5), TMZ was administered at 75 mg/m^2/day QD, and RT was administered at 2 Gy QD×5 days/week, for 42 days. This was then followed by a break in treatment therapy, e.g., from 1 to up to 4 weeks. Thereafter, adjuvant therapy was initiated by administering Compound A at 30 mg or 45 mg and TMZ at 150 or 200 mg/m^2 QD Days 1-5 of a 28-day cycle. Adjuvant therapy cycles were repeated from 2 to 6 times. After adjuvant therapy, was a monotherapy treatment. Monotherapy comprised administering Compound A at 45 mg 4 days on/24 days off.
Data presented as geometric mean (geometric CV %) for AUC and Cmax, mean (SD) for t1/2, and median (range) for tmax. AI AUC, accumulation index ratio of exposure measured at Day 4 to that after Day 1; AI Cmax, accumulation index ratio of maximum observed concentration at Day 4 to that after Day 1; AUC24, area under the concentration-time curve within a 24-hour dosing interval; Cmax, maximum observed concentration; NA, not applicable; t1/2, apparent terminal phase half-life.

[1] = human, plasma, oral, LD, Part A
[2] = human, plasma, oral, LD, Part B

Cn1cc(-c2cc(S(C)(=O)=O)ccc2OCC2CC2)c2ccccc2c1=O [Compound A, 4-[2-(cyclopropylmethoxy)-5-methylsulfonylphenyl]-2-methylisoquinolin-1-one]
Exposure versus dose (15, 30, 45 mg with TMZ): increased proportionally with dose | Cmax (D1, GBM-002 (Part A) (n = 6)): 306 ng/mL | tmax (D1, Part A): 2.0 h | Day 4 time to peak Compound A concentration (Day 4): 0.5 to 2.0 h and 0.5 to 4.0 h | Cmax (LD, GBM-002 (Part A) (n = 6)): 822 ng/mL | T1/2 (LD, Part A, mean): 68 h | tmax (LD, Part A): 1.5 h | AI AUC24 (accumulation index ratio, Day 4 to Day 1) (Part A): 3.05 | AI Cmax (accumulation index ratio, Day 4 to Day 1) (Part A): 2.69 | AI AUC24 (accumulation index ratio, Day 4 to Day 1) (Part B): 2.61 | AI Cmax (accumulation index ratio, Day 4 to Day 1) (Part B): 2.11 | effect of coadministration with RT and TMZ on Compound A PK (Part B): did not appear to impact Compound A PK | Cmax (human, plasma, oral, D1, GBM-002 (Part B) (n = 17), read-out: Cmax): 350 ng/mL | AUC (human, plasma, oral, D1, Part A): 4580 ng·h/mL | AUC (human, plasma, oral, D1, Part B): 4890 ng·h/mL | Cmax (human, plasma, oral, LD, GBM-002 (Part B) (n = 17), read-out: Cmax): 740 ng/mL | AUC(0-inf) [1]: 49800 ng·h/mL | AUC [1]: 13900 ng·h/mL | AUC(0-inf) [2]: 48700 ng·h/mL | AUC [2]: 12700 ng·h/mL | half-life (human, plasma, oral, LD, Part B, mean, read-out: T1/2 (converted)): 2.42 days | half-life (human, plasma, oral, read-out: mean terminal half-life): 2.5 to 2.92 days
